Activity calls are given as the source filed them. No cut-off for these calls is given here.
Columns and labels:
KB [1] = assay: Growth inhibition of human KB cells implanted subcutaneously to NCr nu/nu mouse assessed as tumor size at 4.39 to 28.5 umol/kg, ip administered on day 10, 13, 16, 20 of implantation; assay type: functional, organism-based
[2] = Growth inhibition of human KBV1 cells implanted subcutaneously to NCr nu/nu mouse at 4.39 to 35.1 umol/kg, ip administered from day 3 to 6 after implantation measured on day 7 by MTT-based hollow-fiber test; assay type: functional, KB-V1
LNCaP = assay: Cytotoxicity against human LNCAP cells after 72 hrs by SRB assay; assay type: functional, cell-based
Mus musculus [3] = assay: Toxicity in NCr nu/nu mouse subcutaneously implanted with human KB cells assessed as change in body weight at 17.6 umol/kg, ip administered on day 10, 13, 16, 20 of implantation; assay type: organism-based; details: in vivo
SW626 [4] = assay: Cytotoxicity against human SW626 cells after 72 hrs by SRB assay; assay type: functional, cell-based; details: SW626, 72 h
Mus musculus [5] = assay: Toxicity in NCr nu/nu mouse subcutaneously implanted with human KB cells assessed as change in body weight at 4.39 umol/kg, ip administered on day 10, 13, 16, 20 of implantation; assay type: organism-based; details: in vivo
SK-MEL-2 = assay: Cytotoxicity against human SK-MEL-2 cells after 72 hrs by SRB assay; assay type: functional, cell-based; details: SK-MEL-2, 72 h
Mus musculus [6] = assay: Toxicity in tumor cell implanted NCr nu/nu mouse assessed as body weight change at 4.39 umol/kg, ip administered from day 3 to 6 after implantation measured on day 7; assay type: organism-based; details: in vivo
Mus musculus [7] = assay: Toxicity in NCr nu/nu mouse subcutaneously implanted with human KB cells assessed as change in body weight at 8.78 umol/kg, ip administered on day 10, 13, 16, 20 of implantation; assay type: organism-based; details: in vivo
KB [8] = assay: Cytotoxicity against human KB cells after 72 hrs by SRB assay; assay type: functional, cell-based
Mus musculus [9] = assay: Toxicity in tumor cell implanted NCr nu/nu mouse assessed as body weight change at 17.6 umol/kg, ip administered from day 3 to 6 after implantation measured on day 7; assay type: organism-based; details: in vivo
Mus musculus [10] = assay: Toxicity in tumor cell implanted NCr nu/nu mouse assessed as body weight change at 35.1 umol/kg, ip administered from day 3 to 6 after implantation measured on day 7; assay type: organism-based; details: in vivo
[11] = Cytotoxicity against human KBV1 cells after 72 hrs by SRB assay; assay type: functional, cell-based; details: KB-V1, 72 h
Mus musculus [12] = assay: Toxicity in NCr nu/nu mouse subcutaneously implanted with human KB cells assessed as change in body weight at 35.1 umol/kg, ip administered on day 10, 13, 16, 20 of implantation; assay type: organism-based; details: in vivo
Mus musculus [13] = assay: Toxicity in NCr nu/nu mouse subcutaneously implanted with human KB cells assessed as mortality at 4.39 umol/kg, ip administered on day 10, 13, 16, 20 of implantation; assay type: organism-based; details: in vivo
SW626 [14] = assay: Growth inhibition of human SW626 cells implanted intraperitoneally to NCr nu/nu mouse at 4.39 to 35.1 umol/kg, ip administered from day 3 to 6 after implantation measured on day 7 by MTT-based hollow-fiber test; assay type: functional
KB [15] = assay: Growth inhibition of human KB cells implanted subcutaneously to NCr nu/nu mouse at 4.39 to 35.1 umol/kg, ip administered from day 3 to 6 after implantation measured on day 7 by MTT-based hollow-fiber test; assay type: functional
SW626 [16] = assay: Growth inhibition of human SW626 cells implanted subcutaneously to NCr nu/nu mouse at 4.39 to 35.1 umol/kg, ip administered from day 3 to 6 after implantation measured on day 7 by MTT-based hollow-fiber test; assay type: functional
Col2 = assay: Cytotoxicity against human Col2 cells after 72 hrs by SRB assay; assay type: functional, cell-based; details: Col2, 72 h
Mus musculus [17] = assay: Toxicity in tumor cell implanted NCr nu/nu mouse assessed as body weight change at 8.78 umol/kg, ip administered from day 3 to 6 after implantation measured on day 7; assay type: organism-based; details: in vivo
P388 = assay: Cytotoxicity against mouse P388 cells after 72 hrs by SRB assay; assay type: functional, cell-based; details: P388, 72 h
KB [18] = assay: Growth inhibition of human KB cells implanted intraperitoneally to NCr nu/nu mouse at 4.39 to 35.1 umol/kg, ip administered from day 3 to 6 after implantation measured on day 7 by MTT-based hollow-fiber test; assay type: functional
[19] = Growth inhibition of human KBV1 cells implanted intraperitoneally to NCr nu/nu mouse at 4.39 to 35.1 umol/kg, ip administered from day 3 to 6 after implantation measured on day 7 by MTT-based hollow-fiber test; assay type: functional, KB-V1
Mus musculus [20] = assay: Toxicity in NCr nu/nu mouse subcutaneously implanted with human KB cells assessed as mortality at 8.78 umol/kg, ip administered on day 10, 13, 16, 20 of implantation; assay type: organism-based; details: in vivo
Mus musculus [21] = assay: Toxicity in NCr nu/nu mouse subcutaneously implanted with human KB cells assessed as mortality at 17.6 umol/kg, ip administered on day 10, 13, 16, 20 of implantation; assay type: organism-based; details: in vivo
Lu1 = assay: Cytotoxicity against human Lu1 cells after 72 hrs by SRB assay; assay type: functional, cell-based; details: Lu1, 72 h

CC(=O)O[C@H]1C(=O)[C@@]2(C)[C@H]([C@H](OC(=O)c3ccccc3)[C@]3(O)C[C@H](OC(=O)[C@H](O)[C@@H](NC(=O)c4ccccc4)c4ccccc4)C(C)=C1C3(C)C)[C@]1(OC(C)=O)CO[C@@H]1C[C@@H]2O [PACLITAXEL]
Activity (KB [1]): inactive
inhibition (INH) [2]: 13.1%
IC50 (LNCaP): 20 nM
Activity (Mus musculus [3]): 8.2%
IC50 (SW626 [4]): 0.01 nM
Activity (Mus musculus [5]): 9.4%
IC50 (SK-MEL-2): 70 nM
Activity (Mus musculus [6]): 1.7 g
Activity (Mus musculus [7]): 6.7%
IC50 (KB [8]): 20 nM
Activity (Mus musculus [9]): 1.8 g
Activity (Mus musculus [10]): 1.1 g
IC50 [11]: > 2300 nM
Activity (Mus musculus [12]): 7.8%
Activity (Mus musculus [13]): Non-toxic
inhibition (INH) (SW626 [14]): 98.7%
inhibition (INH) (KB [15]): 19.5%
inhibition (INH) (SW626 [16]): 0%
IC50 (Col2): 20 nM
Activity (Mus musculus [17]): 1.4 g
IC50 (P388): 20 nM
inhibition (INH) (KB [18]): 70.2%
inhibition (INH) [19]: 0%
Activity (Mus musculus [20]): Non-toxic
Activity (Mus musculus [21]): Non-toxic
IC50 (Lu1): 10 nM

— ChEMBL document CHEMBL1150587, “Evaluation of the potential cancer chemotherapeutic efficacy of natural product isolates employing in vivo hollow fiber tests” (J Nat Prod, 2002)
